The record followed here is patent publication US20230149415A1, “METHODS AND COMPOSITIONS FOR TREATING CANCER” (Engine Biosciences Pte. Ltd., priority 2020, published 2023).

In general, IC50 refers to the concentration at which inhibition is half-maximal. A low value points to inhibition by little substance.

For assay [1], the target named is T1, PKMYT1 (Homo sapiens, UniProt Q99640).
T1 sequence (Q99640 1-499): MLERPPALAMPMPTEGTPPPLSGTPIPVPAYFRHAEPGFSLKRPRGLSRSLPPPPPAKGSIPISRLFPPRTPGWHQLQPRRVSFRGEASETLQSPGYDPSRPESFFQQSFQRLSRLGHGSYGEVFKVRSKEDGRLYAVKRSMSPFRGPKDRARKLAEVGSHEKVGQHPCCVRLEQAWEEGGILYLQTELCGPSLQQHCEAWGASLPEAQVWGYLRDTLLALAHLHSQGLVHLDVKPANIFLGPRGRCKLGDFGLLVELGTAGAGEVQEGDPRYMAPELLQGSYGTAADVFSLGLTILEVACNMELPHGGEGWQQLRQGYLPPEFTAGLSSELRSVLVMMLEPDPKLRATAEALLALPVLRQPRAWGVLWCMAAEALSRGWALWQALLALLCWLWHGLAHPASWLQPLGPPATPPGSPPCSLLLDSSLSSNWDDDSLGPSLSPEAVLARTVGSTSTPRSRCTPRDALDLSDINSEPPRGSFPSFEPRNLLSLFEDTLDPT
The assay can be described thus: selective binding assay for PKMYT1. Conditions: in vitro potency.

The target in assay [2] is Wee1 (Homo sapiens, UniProt P30291). Put plainly: selective binding assay for Wee1. The settings on record: in vitro potency.
Chain of Wee1 (P30291 whole entry): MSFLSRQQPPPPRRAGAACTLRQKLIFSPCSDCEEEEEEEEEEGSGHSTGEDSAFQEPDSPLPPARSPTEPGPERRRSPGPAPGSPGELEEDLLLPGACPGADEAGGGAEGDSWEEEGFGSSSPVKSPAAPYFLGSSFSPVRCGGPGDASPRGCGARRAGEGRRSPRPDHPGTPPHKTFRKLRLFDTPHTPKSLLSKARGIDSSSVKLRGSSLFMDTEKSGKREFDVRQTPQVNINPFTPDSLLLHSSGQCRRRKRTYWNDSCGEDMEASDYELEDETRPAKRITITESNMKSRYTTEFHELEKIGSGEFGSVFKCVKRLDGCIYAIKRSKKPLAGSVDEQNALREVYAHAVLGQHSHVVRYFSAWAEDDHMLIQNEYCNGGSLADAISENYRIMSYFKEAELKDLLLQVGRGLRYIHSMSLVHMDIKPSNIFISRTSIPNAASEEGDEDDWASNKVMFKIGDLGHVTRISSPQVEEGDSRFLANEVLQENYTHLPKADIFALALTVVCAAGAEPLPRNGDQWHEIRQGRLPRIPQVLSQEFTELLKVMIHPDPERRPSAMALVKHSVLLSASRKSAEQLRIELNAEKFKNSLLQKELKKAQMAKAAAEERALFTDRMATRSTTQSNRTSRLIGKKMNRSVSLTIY

As for `CCN(CC)CCOc1ccc(Nc2ncc3cc(-c4c(Cl)cccc4Cl)c(=O)n(C)c3n2)cc1` [PD0166285, 6-(2,6-dichlorophenyl)-2-((4-(2-(diethylamino)ethoxy)phenyl)amino)-8-methylpyrido[2,3-d]pyrimidin-7(8H)-one], in assay [1], the 50% inhibitory concentration (IC50) was 8.2 nM. As to `Cn1c(=O)c(-c2c(Cl)cccc2Cl)cc2cnc(Nc3ccc(N4CCOCC4)cc3)nc21` [PD173952, 6-(2,6-dichlorophenyl)-8-methyl-2-((4-morpholinophenyl)amino)pyrido[2,3-d]pyrimidin-7(8H)-one], the IC50 came to 46 nM in assay [1] and 5.3 nM in assay [2].
